The values that follow are results of earlier work, collected in publication PMC9475419 (RSC Advances, 2022).

“Also recorded” adds a separate entry of the source.

The conditions of data set [1]: cited from earlier work.
The conditions of data set [2]: 15 Pep1 per AuNP (3.6 nm); cited from earlier work.

On to CGSTIYASYYESGHGC [Pep1], for which the “structure and function of free peptide” value in data set [1] was “unstructured and non-functional”. Moreover, in data set [2], the “suppression of non-specific binding of AuNPs by Pep1” value was “enough to suppress the non-specific binding surface of AuNPs; also recorded: could sufficiently suppress the non-specific binding of AuNPs”.
